This note sets out measurements from patent US20080058324A1, “Alpha-Keto Carbonyl Calpain Inhibitors” (SANTHERA PHARMACEUTICALS (SCHWEIZ) AG, priority 2004, published 2008).

Data set [1] relates to cellular calpains in C2C12 myoblasts. In words: Calpain Inhibition Assay in C2C12 Myoblasts. The class given is cell-based. Conditions: read-out: Calp I IC50 Myoblast. The procedure:
This assay is aimed at monitoring the ability of the substance to inhibit cellular calpains. C2C12 myoblasts are grown in 96-well plates in growth medium (DMEM, 20% foetal calf serum) until they reach confluency. The growth medium is then replaced by fusion medium (DMEM, 5% horse serum). 24 hours later the fusion medium is replaced by fusion medium containing the test substances dissolved in 1 μl DMSO. After 2 hours of incubation at 37° C. the cells are loaded with the calpain fluorogenic substrate Suc-Leu-Tyr-AMC at 400 μM in 50 μl of a reaction buffer containing 135 mM NaCl; 5 mM KCl; 4 mM CaCl2; 1 mM MgCl2; 10 mM Glucose; 10 mM HEPES pH 7.25 for 20 min at room temperature. The calcium influx, necessary to activate the cellular calpains, is evoked by the addition of 50 μl reaction buffer containing 20 μM of the calcium ionophore Br-A-23187 (Molecular Probes). The fluorescence of the cleavage product AMC is measured as described above during 60 min at 37° C. at intervals of 1 min. The IC50 values are determined as described above. Comparison of the IC50 determined in the enzymatic calpain inhibition assay to the IC50 determined in the C2C12 myoblasts calpain inhibiton assay, allows to evaluate the cellular uptake or the membrane permeability of the substance.

In a further data set the test system is mdx mouse. In words: mdx mouse model for Duchenne Muscular Dystrophy, longterm treatment. Conditions: mdx mice, 4 weeks; for adverse effects upon longterm treatment: 20 mg/kg every 2nd day. The class given is in vivo. The procedure:
The mdx mouse is a well established animal model for Duchenne Muscular Dystrophy (Bulfield G., Siller W. G., Wight P. A., Moore K. J., X chromosome-linked muscular dystrophy (mdx) in the mouse, Proc. Natl. Acad. Sci. USA., 1984, 81(4), 1189-1192). Selected compounds were tested in longterm treatments of mdx mice, according to the procedures described below.
Mouse strains: C57BL/10scsn and C57BL/10scsn mdx mouse strains were purchased at The Jackson Laboratory (ME, USA) and bred inhouse. Mouse males were sacrificed at the age of 3 or 7 weeks by CO2 asphyxiation.
Treatment: Compounds were dissolved in 50% PEG, 50% saline solution and applied by i.p. injection.
Histology: Tibialis anterior (TA), quadriceps (Quad), and diaphragm (Dia) muscles were collected and mounted on cork supports using gum tragacanth (Sigma-Aldrich, Germany). The samples were snap-frozen in melting isopentane and stored at −80° C. 12 μm thick cryosections of the mid-belly region of muscles were prepared. For staining, sections were air dried and fixed with 4% PFA in PBS for 5 minutes, washed 3 times with PBS and incubated over night at 4° C. in PBS containing 2 μg/ml Alexa Fluor™ 488 conjugated wheat-germ agglutinin (WGA-Alexa, Molecular Probes, Eugen, Oreg., USA) to stain membrane-bound and extracellular epitopes and 1 μg/ml 4′,6-diamidino-2-phenylindole (DAPI; Molecular Probes) to stain nuclei.
Image acquisition and analysis: Fluorescence microscopy images of both labels were acquired using a digital camera (ColorView II, Soft Imaging System, Müinster, Germany) coupled to a fluorescence microscope (Vanox S, Olympus, Tokyo, Japan). Combination of these two stainings to a composite image, assembling of several images to a complete image of the entire muscle cross-section and further semi-automated analysis was performed using the image analysis program AnalySIS (Soft Imaging System). Image analysis of 1200-2900 muscle fibers in each section was performed in three steps: 1) determination of the muscle fiber boundaries, 2) determination of the muscle fiber size, and 3) determination of the percentage of muscle fibers containing centralized nuclei. Six different geometrical parameters were tested for the determination of the muscle fiber size: (a) the “minimal feret” (the minimum distance of parallel tangents at opposing borders of the muscle fiber), (b) the “area”, (c) the “minimal inner diameter” (the minimum diameter through the center of the muscle fiber), (d) the “minimal diameter” (the minimum diameter of a muscle fiber for angles in the range 0° through 179° with step width 1°, (e) the “minimal outer diameter” (the minimum diameter through the muscle fiber from outer border to outer border), and (f) the “perimeter”. The variance coefficient of the muscle fiber size is defined as follows: variance coefficient=(standard deviation of the muscle fiber size/mean of the muscle fiber size of the section)*[…]. For statistical analysis of different variance coefficient values Mann-Whitney U test was used.
Selected Examples of the present invention were active in the mdx mouse model at 20 mg/kg every 2nd day, using 3 week old mice and a treatment period of 4 weeks (N=5-10).

Data set [2] has as its system utrophin expression in human DMD myotubes. In words: Utrophin Expression Assay in Human Myotubes. Conditions: 50 nM test compound. The data set is classed as cell-based. The protocol: Utrophin induction was determined by a method which was similar to a method of I. Courdier-Fruh et al., Neuromuscular Disord., 2002, 12, S95-S104.
Primary human muscle cell cultures were prepared from muscle biopsies taken during orthopedic surgery from Duchenne patients (provided by the Association Francaise contre les Myopathies). Cultures were prepared and maintained according to standard protocols. Induction of utrophin expression in human DMD myotubes was assayed at 50 nM or 500 nM of test compound added in differentiation medium. Normalized utrophin protein levels are determined after 5-6 d of incubation by cell-based ELISA with a mouse monoclonal antibody to the aminoterminal portion of utrophin (NCL-DRP2, Novocastra Laboratories). For calibration, the cell density and differentiation was determined by absorbance measurements of the total dehydrogenase enzyme activity in each well using the colorimetric CellTiter 96®AQ One Solution Reagent Proliferation Assay (Promega) according to the manufacturer's recommendation. […] Utrophin protein levels were determined immunologically with utrophin-specific primary antibody and with anappropriate peroxidase-coupled secondary antibody (Jackson ImmunoResearch Laboratories) using QuantaBlu™ Fluorogenic Peroxidase Substrate Kit (Pierce) for detection. […] The primary readout of this signal is presented in arbitrary units. […]

[3] abbreviates: 20 mg/kg every 2nd day i.p., diaphragm, vs vehicle-treated mdx mice.
Setting [4] is: 20 mg/kg every 2nd day i.p., tibialis anterior, vs vehicle-treated mdx mice.

As to `CCNC(=O)C(=O)[C@H](Cc1ccc(Cl)cc1)NC(=O)[C@@H](NC(=O)[C@H](Cc1ccccc1)NC(=O)CCCCc1cccs1)C(C)C` [Example 1], the IC50 in data set [1] was determined as 50 nM. Further, the “decrease in the variance coefficient of the muscle fiber size, Dia” value in the data set on mdx mouse (setting [3]) is reported as 26%. Moreover, in the data set with mdx mouse (setting [4]), the “decrease in the variance coefficient of the muscle fiber size, TA” value stood at 26% and the “reduction of the percentage of centralized nuclei, TA” value is 17%. Further, the “adverse effects upon longterm treatment” value in the data set with mdx mouse was “No prominent adverse effects”.
Consider `CCNC(=O)C(=O)C(Cc1ccc(Cl)cc1)NC(=O)C(NC(=O)C(Cc1cccc2ccccc12)NC(=O)CCCCc1cccs1)C(C)C` (stereo not shown) [Example 22], for which the melting point lay in the range of 238 to 241 °C. The IC50 in data set [1] is 150 nM. Also, the “UTR Induction @50 nM” value in data set [2] came to 117%.
Turning to `CCNC(=O)C(=O)C(Cc1ccc(OC)cc1)NC(=O)C(NC(=O)C(CCc1ccccc1)NC(=O)CCc1cccs1)C(C)C` (stereo not shown) [Example 520], the melting point lay within 238 to 240 °C. For the same compound, the half-maximal inhibitory concentration (IC50) in data set [1] stood at 10 nM. In addition, the “UTR Induction @50 nM” value in data set [2] amounted to 134%. In the data set on mdx mouse (setting [3]), the “decrease in the variance coefficient of the muscle fiber size, Dia” value is 40% and the “reduction of the percentage of centralized nuclei, Dia” value was determined as 26%. In the data set on mdx mouse (20 mg/kg every 2nd day i.p., quadriceps, vs vehicle-treated mdx mice), the “decrease in the variance coefficient of the muscle fiber size, Quad” value was 31%. Also, the “reduction of the percentage of centralized nuclei, TA” value in the data set with mdx mouse (setting [4]) is reported as 13%. In the data set on mdx mouse, the “adverse effects upon longterm treatment” value was “No prominent adverse effects”.
